Test results as given in ChEMBL document CHEMBL2417433, “Synthesis and biological evaluations of a monomethylauristatin E glucuronide prodrug for selective cancer chemotherapy” (Eur J Med Chem, 2013).
The source made the active and inactive calls. The calls are words filed in the database; no cut-off is given here. Non-standard residues stand in square brackets, D forms with d. Residues, ends and D or L forms follow the SMILES beside them. *: point of attachment. Dolaproine = CO[C@@H]([C@@H]1CCCN1)[C@@H](C)C(=O)O; Dil = CC[C@H](C)[C@H](NC)[C@@H](CC(=O)O)OC; X1 = C[C@@H](N*)[C@@H](O)c1ccccc1; NMeV = CN[C@H](C(=O)O)C(C)C

Experiments:
[1] = Cytotoxicity against human non-small cell lung cancer cells at 1 nM after 4 days by XTT assay in presence of Escherichia coli beta-glucuronidase; format: functional, Cancer cell lines
MDA-MB-231 [2] = test: Antiproliferative activity against human MDA-MB-231 cells after 4 days by XTT assay in presence of Escherichia coli beta-glucuronidase; format: functional, cell-based; settings: MDA-MB-231, 96 h
MDA-MB-231 [3] = test: Antiproliferative activity against human MDA-MB-231 cells after 4 days by XTT assay; format: functional, cell-based; settings: MDA-MB-231, 96 h
MDA-MB-231 [4] = test: Ratio of IC50 for human MDA-MB-231 cells to IC50 for human MDA-MB-231 cells in presence of Escherichia coli beta-glucuronidase; format: functional
A549 [5] = test: Antiproliferative activity against human A549 cells after 4 days by XTT assay in presence of Escherichia coli beta-glucuronidase; format: functional, cell-based; settings: A549, 96 h
KB [6] = test: Antiproliferative activity against human KB cells after 4 days by XTT assay; format: functional, cell-based; settings: 96 h
[7] = system: Lewis lung carcinoma cell line; test: Antitumor activity against mouse LLC cells allografted in C57/BL6 mouse assessed as reduction in tumor weight at 0.5 mg/kg, iv administered on day 7, 11 and 14 post transplantation measured on day 20 relative to control; format: functional
A549 [8] = test: Antiproliferative activity against human A549 cells after 4 days by XTT assay; format: functional, cell-based; settings: A549, 96 h
KB [9] = test: Antiproliferative activity against human KB cells after 4 days by XTT assay in presence of Escherichia coli beta-glucuronidase; format: functional, cell-based; settings: 96 h
KB [10] = test: Ratio of IC50 for human KB cells to IC50 for human KB cells in presence of Escherichia coli beta-glucuronidase; format: functional
Mus musculus = test: Toxicity in mouse LLC cells allografted C57/BL6 mouse model assessed as change in body weight at 0.5 mg/kg, iv administered on day 7, 11 and 14 post transplantation measured on day 20; format: organism-based; design: dose 0.5 mg/kg, route intravenous; settings: in vivo
A549 [11] = test: Ratio of IC50 for human A549 cells to IC50 for human A549 cells in presence of Escherichia coli beta-glucuronidase; format: functional
Cancer cell lines = test: Cytotoxicity against human non-small cell lung cancer cells at 0.5 to 1 nM after 4 days by XTT assay; format: functional, cell-based
Serum = test: Stability in bovine serum at 0.5 mg after 48 hrs by HPLC method; format: ADME, cell-free, Bos taurus; settings: cattle
[12] = Prodrug conversion in phosphate buffer at pH 7 assessed as MMAE and 4-hydroxy-3-nitrobenzyl alcohol formation after 40 mins by HPLC method in presence of Escherichia coli beta-glucuronidase; format: physicochemical; settings: pH 7, 40 min
[13] = system: Lewis lung carcinoma cell line; test: Antitumor activity against mouse LLC cells allografted in C57/BL6 mouse assessed as reduction in tumor weight at 0.1 mg/kg, iv administered on day 7, 11 and 14 post transplantation measured on day 20 relative to control; format: functional

SMILES | Activity [1] [%] | IC50 (MDA-MB-231 [2]) [nM] | IC50 (MDA-MB-231 [3]) [nM] | Ratio IC50 (MDA-MB-231 [4]) | IC50 (A549 [5]) [nM] | IC50 (KB [6]) [nM] | fold change (FC) [7] | IC50 (A549 [8]) [nM] | IC50 (KB [9]) [nM] | Ratio IC50 (KB [10]) | Activity (Mus musculus) | Ratio IC50 (A549 [11]) | Activity (Cancer cell lines) | Stability (Serum) | Drug metabolism [12] | fold change (FC) [13]
CC[C@H](C)[C@@H]([C@@H](CC(=O)N1CCC[C@H]1[C@H](OC)[C@@H](C)C(=O)N[C@H](C)[C@@H](O)c1ccccc1)OC)N(C)C(=O)[C@@H](NC(=O)[C@H](C(C)C)N(C)C(=O)OCc1ccc(O[C@@H]2O[C@H](C(=O)O)[C@@H](O)[C@H](O)[C@H]2O)c([N+](=O)[O-])c1)C(C)C | 75 | 0.22 | 20.9 | 40 | 0.52 | 20.8 | 1.5 | 23.7 | 0.16 | 40 | Non-toxic | 40 | inactive | Stable | Active | 
CC[C@H](C)[C@@H]([C@@H](CC(=O)N1CCC[C@H]1[C@H](OC)[C@@H](C)C(=O)N[C@H](C)[C@@H](O)c1ccccc1)OC)N(C)C(=O)[C@@H](NC(=O)[C@@H](NC)C(C)C)C(C)C (H-[NMeV]V[Dil][Dolaproine]-X1) |  |  | 0.25 |  |  | 0.19 |  | 0.59 |  |  |  |  | Active |  |  | 1.5
